Key:
[1] = system: B6C3F1 mice; settings: week 91
[2] = system: F344/N rats; settings: week 92

SMILES: c1ccccc1 [benzene]
- Survival in all groups [1]: greater than 60%
- Survival in all groups [2]: greater than 60%

— paper PMC1568117 (Environmental Health Perspectives, 1989)
